Laboratory results reported in US20070275960A1, “Phenyl and pyridyl compounds for inflammation and immune-related uses” (Synta Pharmaceuticals Corp., priority 2006, published 2007).
Counter-ions that a name gives are not always drawn.

The molecules below were run on IL-2 production (assay: Inhibition of IL-2 production in PHA-activated Jurkat cells (ELISA)). Conditions: Homo sapiens, Jurkat, 20 h, PHA 2.5 μg/mL, 20 hours at 37° C., IL-2 by ELISA.
Format: cell-based
Experimental: Jurkat cells were placed in a 96 well plate (0.5 million cells per well in 1% FBS medium) then a test compound of this invention was added at different concentrations. After 10 minutes, the cells were activated with PHA (final concentration 2.5 μg/mL) and incubated for 20 hours at 37° C. under CO2. The final volume was 200 μL. Following incubation, the cells were centrifuged and the supernatants collected and stored at −70° C. prior to assaying for IL-2 production. A commercial ELISA kit (IL-2 Eli-pair, Diaclone Research, Besancon, France) was used to detect production of IL-2, from which dose response curves were obtained. The IC50 value was calculated as the concentration at which 50% of maximum IL-2 production after stimulation was inhibited versus a non-stimulation control.

IC50 | SMILES
2.8 nM | Cc1cncnc1C(=O)Nc1ccc(-c2sc(-c3ccno3)cc2C)cc1 [Compound 107, 5-Methyl-pyrimidine-4-carboxylic acid [4-(3-methyl-5-isoxazol-5-yl-thiophen-2-yl)-phenyl]-amide]
2.5 nM | Cc1cc(-c2ccno2)sc1-c1ccc(NC(=O)Nc2c(F)cccc2F)cc1 [Compound 125, 1-(2,6-difluoro-phenyl)-3-[4-(5-isoxazol-5-yl-3-methyl-thiophen-2-yl)-phenyl]-urea]
3 nM | COC(=O)c1cc(-c2ccc(NC(=O)c3ccncc3C)cc2)c(C)s1 [Compound 2, 5-Methyl-4-{4-[(3-methyl-pyridine-4-carbonyl)-amino]-phenyl}-thiophene-2-carboxylic acid methyl ester]
7.2 nM | Cc1cnccc1C(=O)Nc1ccc(-c2sc(-c3cncnc3)cc2C)cc1 [Compound 97, 3-Methyl-N-[4-(3-methyl-5-pyrimidin-5-yl-thiophen-2-yl)-phenyl]-isonicotinamide]
2.1 nM | Cc1cnccc1C(=O)Nc1ccc(-c2sc(-c3cccnc3)cc2C)cc1 [Compound 96, 3-Methyl-N-[4-(3-methyl-5-pyridin-3-yl-thiophen-2-yl)-phenyl]-isonicotinamide]
3 nM | Cc1cc(-c2ccno2)sc1-c1ccc(NC(=O)c2cccn2C)cc1 [Compound 103, 1-Methyl-1H-pyrrol-2-carboxylic acid [4-(3-methyl-5-isoxazol-5-yl-thiophen-2-yl)-phenyl]-amide]
> 1000 nM | Cc1cc(-c2ccno2)sc1-c1ccc(NC(=O)c2ccnn2C)cc1 [Compound 104, 1-Methyl-1H-pyrazol-5-carboxylic acid [4-(3-methyl-5-isoxazol-5-yl-thiophen-2-yl)-phenyl]-amide]
1 nM | Cc1cc(-c2ncco2)sc1-c1ccc(NC(=O)c2c(F)cccc2F)cc1 [Compound 39, 2,6-Difluoro-N-[4-(3-methyl-5-oxazol-2-yl-thiophen-2-yl)-phenyl]-benzamide]
19 nM | Cc1cc(-c2ccno2)sc1-c1ccc(NCc2ccncc2F)cc1 [Compound 128, (3-Fluoro-pyridin-4-ylmethyl)-[4-(5-isoxazol-5-yl-3-methyl-thiophen-2-yl)-phenyl]-amine]
1.9 nM | Cc1sc(-c2ncco2)cc1-c1ccc(NC(=O)c2c(F)cccc2F)cc1 [Compound 122, 2,6-Difluoro-N-[4-(2-methyl-5-oxazol-2yl-thiophen-3-yl)-phenyl]-benzamide]
3 nM | Cc1cnccc1C(=O)Nc1ccc(-c2sc(-c3ncco3)cc2C)cc1 [Compound 93, 3-Methyl-N-[4-(3-methyl-5-oxazol-2-yl-thiophen-2-yl)-phenyl]-isonicotinamide]
83.8 nM | Cc1cc(-c2ccno2)sc1-c1ccc(NC(=O)c2csnn2)cc1 [Compound 106, [1,2,3]thiadiazol-4-carboxylic acid [4-(3-methyl-5-isoxazol-5-yl-thiophen-2-yl)-phenyl]-amide]
10 nM | Cc1cnccc1C(=O)Nc1ccc(-c2sc(-c3ccno3)cc2Cl)cc1 [Compound 113, 3-Methyl-N-[4-(3-chloro-5-isoxazol-5-yl-thiophen-2-yl)-phenyl]-isonicotinamide]
4 nM | Cc1cc(-c2ncco2)sc1-c1ccc(NC(=O)c2snnc2C)cc1 [Compound 92, 4-Methyl-[1,2,3]thiadiazole-5-carboxylic acid [4-(3-methyl-5-oxazol-2-yl-thiophen-2-yl)-phenyl]-amide]
1 nM | COC(=O)c1cc(-c2ccc(NC(=O)c3c(F)cccc3F)cc2)c(C)s1 [Compound 1, 4-[4-(2,6-Difluoro-benzoylamino)-phenyl]-5-methyl-thiophene-2-carboxylic acid methyl ester]
41 nM | Cc1cc(-c2cnco2)sc1-c1ccc(NC(=O)Nc2ccncc2F)cc1 [Compound 127, 1-(3-fluoro-pyridin-4-yl)-3-[4-(5-oxazol-5-yl-3-methyl-thiophen-2-yl)-phenyl]-urea]
7.6 nM | Cc1cc(-c2ccno2)sc1-c1ccc(NC(=O)c2cnsc2)cc1 [Compound 105, Isothiazol-4-carboxylic acid [4-(3-methyl-5-isoxazol-5-yl-thiophen-2-yl)-phenyl]-amide]
8.7 nM | Cc1cnccc1C(=O)Nc1ccc(-c2sc(-c3nccs3)cc2C)cc1 [Compound 111, 3-Methyl-N-[4-(3-methyl-5-thiazol-2-yl-thiophen-2-yl)-phenyl]-isonicotinamide]

IC50 | SMILES
5.2 nM | Cc1cc(-c2ccncc2)sc1-c1ccc(NC(=O)c2snnc2C)cc1 [Compound 99, 4-Methyl-[1,2,3]thiadiazole-5-carboxylic acid [4-(3-methyl-5-pyridin-4-yl-thiophen-2-yl)-phenyl]-amide, hydrochloride]
237 nM | Cc1cnccc1C(=O)Nc1ccc(-c2sc(N3CCOCC3)nc2C)cc1 [Compound 10, 3-Methyl-N-[4-(4-methyl-2-morpholin-4-yl-thiazol-5-yl)-phenyl]-isonicotinamide]
9.6 nM | Cc1cncnc1C(=O)Nc1ccc(-c2sc(-c3cnco3)cc2C)cc1 [Compound 115, 5-Methyl-pyrimidine-4-carboxylic acid [4-(3-methyl-5-oxazol-5-yl-thiophen-2-yl)-phenyl]-amide]
6.7 nM | Cc1cnccc1C(=O)Nc1ccc(-c2sc(-c3cnco3)cc2Cl)cc1 [Compound 112, 3-Methyl-N-[4-(3-chloro-5-oxazol-5-yl-thiophen-2-yl)-phenyl]-isonicotinamide]
4 nM | Cc1cnccc1C(=O)Nc1ccc(-c2sc(-c3ccncc3)cc2C)cc1 [Compound 101]
106 nM | Cc1nc(N2CCOCC2)sc1-c1ccc(NC(=O)c2c(F)cccc2F)cc1 [Compound 9, 2,6-Difluoro-N-[4-(4-methyl-2-morpholin-4-yl-thiazol-5-yl)-phenyl]-benzamide]
7 nM | COC(=O)c1cc(-c2ccc(NC(=O)c3c(F)cccc3F)cc2)c(C)o1 [Compound 8, 4-[4-(2,6-Difluoro-benzoylamino)-phenyl]-5-methyl-furan-2-carboxylic acid methyl ester]
> 1000 nM | Cc1ncsc1-c1ccc(NC(=O)c2c(F)cccc2F)cc1 [Compound 120, 2,6-Difluoro-N-[4-(4-methyl-thiazole-5-yl)-phenyl]-benzamide]
3 nM | Cc1sc(-c2cnco2)cc1-c1ccc(NC(=O)c2c(F)cccc2F)cc1 [Compound 3, 2,6-Difluoro-N-[4-(2-methyl-5-oxazol-5-yl-thiophen-3-yl)-phenyl]-benzamide]
22 nM | Cc1cc(-c2ccno2)sc1-c1ccc(NC(=O)c2cnns2)cc1 [Compound 102, [1,2,3]thiadiazole-5-carboxylic acid [4-(3-methyl-5-isoxazol-5-yl-thiophen-2-yl)-phenyl]-amide]
8.6 nM | Cc1cnccc1C(=O)Nc1ccc(-c2cc(-c3ncco3)sc2C)cc1 [Compound 124, 3-Methyl-N-[4-(2-methyl-5-oxazol-2-yl-thiophen-3-yl)-phenyl]-isonicotinamide]
2.4 nM | Cc1cc(-c2cnco2)sc1-c1ccc(NC(=O)Nc2c(F)cccc2F)cc1 [Compound 126, 1-(2,6-difluoro-phenyl)-3-[4-(5-oxazol-5-yl-3-methyl-thiophen-2-yl)-phenyl]-urea]
1 nM | COC(=O)c1cc(C)c(-c2ccc(NC(=O)c3c(F)cccc3F)cc2)s1 [Compound 4, 5-[4-(2,6-Difluoro-benzoylamino)-phenyl]-4-methyl-thiophene-2-carboxylic acid methyl ester]
133 nM | COC(=O)c1nc(C)c(-c2ccc(NC(=O)c3c(F)cccc3F)cc2)s1 [Compound 121, 2,6-Difluoro-N-[4-(4-methyl-2-methoxycarbonyl-thiazol-5-yl)-phenyl]-benzamide]
> 1000 nM | Cc1cc(NC(=O)c2c(F)cccc2F)ccc1-c1nc(C(F)(F)F)cs1 [Compound 91, 2,6-Difluoro-N-[3-methyl-4-(4-trifluoromethyl-thiazole-2-yl)-phenyl]-benzamide]
74.4 nM | Cc1cc(-c2cnco2)sc1-c1ccc(NCc2ccncc2F)cc1 [Compound 129, (3-Fluoro-pyridin-4-ylmethyl)-[4-(5-oxazol-5-yl-3-methyl-thiophen-2-yl)-phenyl]-amine]
123 nM | CCOC(=O)c1nc(-c2ccc(NC(=O)c3c(F)cccc3F)cc2)c(C)s1 [Compound 123, 2,6-Difluoro-N-[4-(5-methyl-2-ethoxycarbonyl-thiazol-4-yl)-phenyl]-benzamide]
5.2 nM | Cc1cnccc1C(=O)Nc1ccc(-c2sc(-c3ccno3)cc2C)cc1 [Compound 94, 3-Methyl-N-[4-(3-methyl-5-isoxazol-5-yl-thiophen-2-yl)-phenyl]-isonicotinamide]

Same assay, conditions: PHA 2.5 μg/mL, 20 hours at 37° C., IL-2 by ELISA

IC50 | SMILES
6.1 nM | Cc1cc(-c2ccncc2)sc1-c1ccc(NC(=O)c2snnc2C)cc1 [Compound 118, 4-Methyl-[1,2,3]thiadiazole-5-carboxylic acid [4-(3-methyl-5-pyridin-4-yl-thiophen-2-yl)-phenyl]-amide]
4.8 nM | Cc1cc(-c2ccccn2)sc1-c1ccc(NC(=O)c2snnc2C)cc1 [Compound 119, 4-Methyl-[1,2,3]thiadiazole-5-carboxylic acid [4-(3-methyl-5-pyridin-2-yl-thiophen-2-yl)-phenyl]-amide]

Same assay, conditions: PHA 2.5 μg/mL, 20 hours at 37° C., IL-2 by ELISA, hydrochloride

IC50 | SMILES
10.5 nM | Cc1cc(-c2ccccn2)sc1-c1ccc(NC(=O)c2snnc2C)cc1 [Compound 100, 4-Methyl-[1,2,3]thiadiazole-5-carboxylic acid [4-(3-methyl-5-pyridin-2-yl-thiophen-2-yl)-phenyl]-amide, hydrochloride]
